17 compounds from US11247965B2 (VenatoRx Pharmaceuticals, Inc., priority 2017, dated 2022) can be followed below.

Data set [1] relates to HBV replication in HepAD38 cells. In words: Anti-HBV activity in HepAD38 cells, extracellular HBV DNA by QPCR. Format: cell-based, HBV (genotype D, serotype ayw). Particulars: Hepatitis B virus, HePAD38, 168 h, read-out: Anti-HBV EC50, HepAD38 cells, extracellular HBV DNA by QPCR, 7 days of incubation. The protocol: The anti-HBV activity of the Capsid Assembly Modulators (CAMs) was evaluated in a cell based assay utilizing the human hepatoma cell line HepAD38 (Ladner, S K., et al., 1998). HepAD38 cells were derived from the parental line, HepG2, that were stably transfected with a construct containing an HBV genome (genotype D, serotype ayw) under the control of a tetracycline repressible CMV promoter. Upon removal of tetracycline, viral pre-genomic RNA (pgRNA) and mRNAs are expressed and infectious viral particles are assembled and secreted into the culture medium providing a reliable, robust system to measure multiple steps of the HBV life cycle. Disruption of capsid formation results in reduced levels of DNA-containing virus particles that are released into the culture supernatant. To quantify the effect of CAMs on HBV replication, we developed a sensitive QPCR-based assay that measures extracellular HBV DNA levels upon treatment of HepAD38 cells with various concentrations of test compounds.
HepAD38 cells were maintained in DMEM/F12 medium containing 10% FBS, 400 μg/mL G418 and 0.3 μg/mL tetracycline (tet+medium) to maintain repression of HBV replication. To evaluate each compound, HepAD38 cells were seeded into 24-well collagen coated culture plates (Corning BioCoat) at a density of 200,000 cells per well in 1 mL of tet+medium and allowed to adhere overnight at 37° C., 5% CO2 in a humidified incubator. The following day, test articles were subjected to half-logo serial dilutions, ranging from 30 μM to 10 nM, in 100% DMSO at 200× the desired final assay concentration. Tetracycline was removed from the cells by aspirating the tet+medium and washing the cells once with growth medium lacking tetracycline (tet-). Various concentrations of each compound were added to the appropriate wells (1:200 dilution) and the plates were returned to the incubator. Following 7 days of incubation, culture supernatants were harvested and HBV DNA levels were evaluated by QPCR and compared to the vehicle treated control wells (i.e. DMSO alone).
To quantify HBV DNA levels, cell culture supernatants were diluted 1:10 in sterile, nuclease-free water (Gibco). The diluted supernatants were subsequently added to a PCR master mix containing 1× Roche Light Cycler Master Mix, 0.5 μM forward primer, 0.5 μM reverse primer (Fwd:
0.2 μM Roche Universal Probe Library Probe 25. The volume was brought to 20 μL with nuclease-free water and amplification of the HBV target sequence was performed using a Roche LightCycler 480 QPCR instrument. PCR extended out to 45 cycles with each cycle consisting of a denaturation step at 95° C. for 10 sec., followed by an annealing step at 60° C. for 10 sec. and a brief extension step at 72° C. for 1 sec.
Extracellular HBV DNA levels, expressed in copies/mL, were determined by comparison to a standard curve (10^2-10^9 copies/mL) using the Roche LightCycler analysis software. These values were subsequently converted to percent inhibition of HBV replication by dividing the HBV DNA levels in the experimental samples with those obtained from the vehicle control (˜1-2×10^5 copies/mL). Potency, expressed as an EC50 (the effective concentration required to inhibit […] of HBV replication), was calculated from the dose-response curve using a 4-parameter non-linear regression analysis (GraphPad Prism). The nucleoside analog inhibitor entecavir was used as a positive control to validate each assay run. The EC50 value of entecavir in the HepAD38 assay was 0.5 nM, as previously reported in the literature.

A short description of data set [2]: In vitro cytotoxicity, MTT cell viability assay in HepG2 cells. Format: cell-based. Particulars: human, Cytotoxicity CC50. The protocol:
To evaluate antiviral selectivity, the cytotoxic activity of each compound was determined using a standard cell viability assay performed on the parental HepG2 cell line. Cell viability was determined by measuring the conversion of 3-(4,5-dimethylthiazol-2-yl)-2,5-diphenyltetrazolium bromide (MTT) to the insoluble formazan salt crystal that occurs in live cells. Briefly, HepG2 cells were seeded in 96-well plates at a density of 20,000 cells per well in EMEM+10% FBS (complete growth medium) and allowed to adhere overnight in a 37° C., 5% CO2 humidified incubator. The next day, test agents were prepared by performing 8 half-log10 serial dilutions in 100% DMSO at 200× the final desired concentration in the assay. Compounds were tested over a range of concentrations from 30 μM to 1.0 nM in the assay. HepG2 cells were incubated in the presence of various concentrations of CAMs for 7 days in a 37° C., 5% CO2 humidified incubator. At the completion of the 7-day incubation period, MTT reagent was added to each well and the mixture was incubated for an additional 3-4 hours. At the completion of the incubation period, all wells were aspirated to remove the culture medium. The formazan crystals were solubilized from the cell monolayers with 100% DMSO. Plates were briefly mixed on an orbital shaker and absorbance was measured at 492 nm using a Perkin-Elmer EnVision multi-label plate reader. All absorbance values were converted to a percentage of the signal obtained from the vehicle treated controls. Absorbance values at 492 nm are directly proportional to the number of viable cells present in the sample. A CC50 value (cytotoxic concentration that results in loss of 50% cell viability) was calculated from the dose-response curve by 4-parameter, non-linear regression analysis using the GraphPad Prism software. The positive control compound, staurosporine, reduced the viability of HepG2 cells in a dose-dependent manner (CC50=100 nM).
(Tetrazolium assays rely on reduction of a dye to a coloured formazan, in cell work by metabolically active cells.)

The structures appear in SMILES notation.

Usually EC50 stands for the concentration that produces a half-maximal response. What is called CC50 is the concentration giving 50% cytotoxicity. Lower therefore signals harm at low concentration.

Take `Cc1cc(NC(=O)c2ccc(F)c(C(F)(F)C(=O)N3CCC(O)CC3)c2)cc(F)c1F` [Example 159, 3-(1,1-difluoro-2-(4-hydroxypiperidin-1-yl)-2-oxoethyl)-N-(3,4-difluoro-5-methylphenyl)-4-fluorobenzamide]: the EC50 in data set [1] was below 5 µM. The compound also came in with a CC50 at 7 days in data set [2] of 5 to 30 µM.

In the case of `CC(C)(C)NC(=O)C(F)(F)c1cc(C(=O)Nc2ccc(F)c(F)c2)ccc1F` [Example 18, 3-(2-(tert-butylamino)-1,1-difluoro-2-oxoethyl)-N-(3,4-difluorophenyl)-4-fluorobenzamide], the EC50 in data set [1] was 5 to 30 µM. Further, the CC50 at 7 days in data set [2] was 5 to 30 µM.

`Cc1cc(NC(=O)c2ccc(F)c(C(F)(F)C(=O)N3CCC(NC(=O)C4CCNC(=O)C4)CC3)c2)ccc1F` (stereo not shown) [Example 233, N-(1-(2,2-difluoro-2-(2-fluoro-5-((4-fluoro-3-methylphenyl)carbamoyl)phenyl)acetyl)piperidin-4-yl)-2-oxopiperidine-4-carboxamide]: in data set [1], the EC50 was below 5 µM. The CC50 at 7 days in data set [2] is 5 to 30 µM.

`Cc1cc(NC(=O)c2ccc(F)c(C(F)(F)C(=O)N3CCOC[C@H]3C(=O)O)c2)ccc1F` [Example 237, (S)-4-(2,2-difluoro-2-(2-fluoro-5-((4-fluoro-3-methylphenyl)carbamoyl)phenyl)acetyl)morpholine-3-carboxylic acid]: the EC50 in data set [1] fell in the range of 5 to 30 µM. In addition, the CC50 at 7 days in data set [2] was above 30 µM.

For the compound `O=C(Nc1ccc(F)c(Cl)c1)c1ccc(Cl)c(C(F)(F)C(=O)N2CCC(O)CC2)c1` [Example 35, 4-chloro-N-(3-chloro-4-fluorophenyl)-3-(1,1-difluoro-2-(4-hydroxypiperidin-1-yl)-2-oxoethyl)benzamide], the 50% effective concentration (EC50) in data set [1] was below 5 µM. In data set [2], this compound returned a CC50 at 7 days of 5 to 30 µM.

As for `Cn1cc(NC(=O)c2ccc(F)c(C(F)(F)C(=O)N3CCC(O)C(F)(F)C3)c2)cn1` (stereo not shown) [Example 179, 3-(2-(3,3-difluoro-4-hydroxypiperidin-1-yl)-1,1-difluoro-2-oxoethyl)-4-fluoro-N-(1-methyl-1H-pyrazol-4-yl)benzamide], the EC50 in data set [1] lay in the range of 5 to 30 µM. In data set [2], this compound gave a CC50 at 7 days above 30 µM.

Take `Cc1cc(NC(=O)c2ccc(F)c(C(F)(F)C(=O)N3[C@H](C)CN(S(C)(=O)=O)C[C@@H]3C)c2)ccc1F` [Example 293, 3-(2-((2S,6R)-2,6-dimethyl-4-(methylsulfonyl)piperazin-1-yl)-1,1-difluoro-2-oxoethyl)-4-fluoro-N-(4-fluoro-3-methylphenyl)benzamide]: the EC50 in data set [1] is below 5 µM. Also, in data set [2], the CC50 at 7 days lay in the range of 5 to 30 µM.

As to `Cc1cc(NC(=O)c2cc(C(F)(F)C(=O)NC(C)(C)CO)n(C)c2)ccc1F` [Example 104, 5-(1,1-difluoro-2-((1-hydroxy-2-methylpropan-2-yl)amino)-2-oxoethyl)-N-(4-fluoro-3-methylphenyl)-1-methyl-1H-pyrrole-3-carboxamide], the EC50 in data set [1] is below 5 µM. The same compound yielded a CC50 at 7 days in data set [2] above 30 µM.

Regarding `Cc1cc(NC(=O)c2ccc(Cl)c(C(F)(F)C(=O)N3CC[C@@H](O)[C@H](O)C3)c2)ccc1F` (racemic) [Example 56, (±)-4-chloro-3-(2-(3,4-dihydroxypiperidin-1-yl)-1,1-difluoro-2-oxoethyl)-N-(4-fluoro-3-methylphenyl)benzamide], in data set [1], the EC50 is below 5 µM. Further, in data set [2], the cytotoxic concentration (CC50) at 7 days was above 30 µM.

`Cc1cc(NC(=O)c2ccc(F)c(C(F)(F)C(=O)N3C4CC[C@@H]3C[C@@H](NS(C)(=O)=O)C4)c2)ccc1F` [Example 261, 3-(1,1-difluoro-2-((1R,3s,5S)-3-(methylsulfonamido)-8-azabicyclo[3.2.1]octan-8-yl)-2-oxoethyl)-4-fluoro-N-(4-fluoro-3-methylphenyl)benzamide]: the EC50 in data set [1] was below 5 µM. The compound also displayed a CC50 at 7 days in data set [2] below 5 µM.

In the case of `Cn1cc(C(=O)Nc2ccc(F)c(Cl)c2)cc1C(F)(F)C(=O)NC1(C#N)CC1` [Example 146, N-(3-chloro-4-fluorophenyl)-5-(2-((1-cyanocyclopropyl)amino)-1,1-difluoro-2-oxoethyl)-1-methyl-1H-pyrrole-3-carboxamide], in data set [1], the EC50 was below 5 µM. In data set [2], this compound yielded a CC50 at 7 days above 30 µM.

Take `CC[C@H](C)NC(=O)C(F)(F)c1cc(C(=O)Nc2ccc(F)c(C)c2)cn1C` [Example 103, (S)-5-(2-(sec-butylamino)-1,1-difluoro-2-oxoethyl)-N-(4-fluoro-3-methylphenyl)-1-methyl-1H-pyrrole-3-carboxamide]: in data set [1], the EC50 is below 5 µM. The same compound returned a CC50 at 7 days in data set [2] of 5 to 30 µM.

`Cc1cc(NC(=O)c2cc(C(F)(F)C(=O)N3[C@@H]4CC[C@H]3C[C@H](O)C4)c(F)cc2F)ccc1F` [Example 218, 5-(1,1-difluoro-2-((1R,3s,5S)-3-hydroxy-8-azabicyclo[3.2.1]octan-8-yl)-2-oxoethyl)-2,4-difluoro-N-(4-fluoro-3-methylphenyl)benzamide]: in data set [1], the EC50 was below 5 µM. In data set [2], this compound returned a half-maximal cytotoxic concentration (CC50) at 7 days above 30 µM.

Take `Cc1cc(NC(=O)c2cc(C(F)(F)C(=O)N3CCC(O)CC3)n(C)c2)ccc1F` [Example 97, 5-(1,1-difluoro-2-(4-hydroxypiperidin-1-yl)-2-oxoethyl)-N-(4-fluoro-3-methylphenyl)-1-methyl-1H-pyrrole-3-carboxamide]: the EC50 in data set [1] is below 5 µM. The compound also showed a CC50 at 7 days in data set [2] above 30 µM.

With `O=C(Nc1ccc(F)c(F)c1)c1ccc(F)c(C(F)(F)C(=O)N2CCCC(O)C2)c1` (stereo not shown) [Example 15, 3-(1,1-difluoro-2-(3-hydroxypiperidin-1-yl)-2-oxoethyl)-N-(3,4-difluorophenyl)-4-fluorobenzamide], the half-maximal effective concentration (EC50) in data set [1] is below 5 µM. In data set [2], this compound had a cytotoxic concentration (CC50) at 7 days of 5 to 30 µM.

Regarding `Cc1cc(NC(=O)c2cc(C(F)(F)C(=O)NC(C)C)n(C)c2)ccc1F` [Example 102, 5-(1,1-difluoro-2-(isopropylamino)-2-oxoethyl)-N-(4-fluoro-3-methylphenyl)-1-methyl-1H-pyrrole-3-carboxamide], in data set [1], the EC50 was below 5 µM. In data set [2], this compound showed a CC50 at 7 days above 30 µM.

Regarding `Cc1cc(NC(=O)c2ccc(F)c(C(F)(F)C(=O)NC(C)(C)CO)c2)ccc1F` [Example 28, 3-(1,1-difluoro-2-((1-hydroxy-2-methylpropan-2-yl)amino)-2-oxoethyl)-4-fluoro-N-(4-fluoro-3-methylphenyl)benzamide], in data set [1], the EC50 lay within 5 to 30 µM. Moreover, the CC50 at 7 days in data set [2] is above 30 µM.
